Reference: patent publication US20180021294A1, “Ephrin Receptor A2 (EPHA2)-Targeted Docetaxel-Generating Nano-Liposome Compositions” (Merrimack Pharmaceuticals, Inc., priority 2016, published 2018)

What was measured:
MDA-MB-231 xenograft = experiment: Drug biodistribution in MDA-MB-231 xenograft model; assay type: in vivo, mice; settings: after 40scFv-ILs-DTXp3 50 mpk; tumor vs liver and spleen
Source text: Each group consists of 3 animals. “Mpk” stand for mg of the drug per kg animal body weight.
The animals received one tail vein injection of 40scFv-ILs-DTXp3 at 50 mpk or free docetaxel at 10 mpk. At each time point, animals were sacrificed and tumor, liver and spleen were collected and flash frozen.
All tissue samples were thawed, weighed, and then mechanically homogenized using a Bullet Blender (Next Advance, Inc., Averill Park, N.Y.) in a solution of 40% acetonitrile containing 0.25% trifluoroacetic acid. The acid was included in the solvent for pH stabilization of Compound 3. […]
The homogenized tissue samples were analyzed utilizing two bioanalytical assays to individually measure Compound 3 and DTX. […] The analytes, Compound 3 and DTX, were detected in both assays by multiple reaction monitoring (MRM) in positive ion mode using electrospray ionization. The homogenized tissue samples were quantitated for Compound 3 and DTX using extracted calibration standards and quality control (QC) samples prepared by spiking Compound 3 or DTX into an acidified plasma matrix, which is a 3:2 mixture of female CD-1 lithium heparinized mouse plasma (Bioreclamation, LLC, Westbury, N.Y.) and 200 mM sodium phosphate buffer (pH 2.5). […]

[1] = Hydrolysis in buffer at 37° C., % DTX formation by HPLC; assay type: physicochemical
Procedure: A volume of a 10 mg/mL solution of drug in DMSO as needed to provide the desired concentration (typically 16 p1 to yield a 80 μg/mL solution) is placed in a glass test tube or 4 mL vial. Additional DMSO may also be added (e.g. 64 μL when using 164 of drug solution) to yield a final total DMSO concentration of 4%. The DMSO solutions are mixed by brief vortexing, and then 2 mL (20 mM) HEPES buffer for pH 7.5 and 2 mL of (20 mM) phosphate buffer for pH 2.5 is added and the mixture is vortexed again. The initial pH may be adjusted by addition of HCl or NaOH.
Then 100 μLaliquots of the buffer solution of drug are transferred into HPLC vials and incubated in a 37° C. water bath. The remaining solution is also incubated at 37° C. in 4 mL vials for monitoring of pH.
At each time point 900 μL of 0.1% trifluoroacetic acid (TFA) in acetonitrile (ACN) is added to the HPLC vial and the contents are vortexed. The vials are then placed in an autosampler rack at 4° C. for HPLC analysis.
Time zero data points are typically obtained from a solution of 4 μL DMSO stock in 5 mL of 0.1% TFA/ACN (8 μg/mL).
HPLC analysis is performed on a SYNERGI 4 micron Polar RP-80A, 250×4.6 mm column, using a flow rate of 1 mL/min, a 50 μL injection volume, column temperature of 25° C. and with UV detection at 227 nm. Most compounds are analyzed using a 13 min gradient (Method A) from 30 to 66% acetonitrile in aqueous 0.1% TFA, followed by a 1 min gradient back to 30% and a hold at 30% for 6 minutes. If the retention time is too long for this method, a 20 min gradient (Method B) of 30 to 90% acetonitrile, followed by a 1 min return to 30% and held for 9 min at 30% is employed.
The extent of hydrolysis is reported in Table 7 below as the % DTX formation based on relative peak areas.

[2] = Coagulation parameters (PT, APTT, fibrinogen) in rats; assay type: in vivo, Sprague Dawley rats; settings: 10 mg/kg, end of study (Day 30), vs vehicle control
Procedure: Blood samples collected at end of study from all the tested groups were analyzed for coagulation-related parameters including: Prothrombin time (PT), activated partial thromboplastin time (APTT) and fibrinogen levels.

[3] = Chronic tolerability studies; settings: in vivo
Procedure: Chronic tolerability studies were performed in rodent and non-rodent models with focus on overall animal health, as well as hematologic toxicities.

SUM-159 xenograft = settings: mouse, in vivo
Source text: The animals received four tail vein injections, at the intervals of 7 days.
The tumor progression was monitored by palpation and caliper measurements of the tumors along the largest (length) and smallest (width) axis twice a week.

[4] = In vivo tolerability in Swiss Webster mice; settings: IV
Source text: Swiss Webster homozygous female mice (5-6 week old) were obtained from Charles River Laboratory. The animals received tail vein injections, at the intervals of 7 days of tested compound at tested dose (Table 5: Experimental design).
Animal weight and performance status score were monitored based on clinical observation of the mice three to four times a week (clinical observations table). Animals that experience severe toxicity are euthanized according to IACUC protocol. If more than 30% of the mice experience severe toxicity the tested dose is deemed not tolerated.

CCN(CC)CCCC(=O)O[C@@H](C(=O)O[C@H]1C[C@@]2(O)[C@@H](OC(=O)c3ccccc3)[C@@H]3[C@]4(OC(C)=O)CO[C@@H]4C[C@H](O)[C@@]3(C)C(=O)[C@H](O)C(=C1C)C2(C)C)[C@@H](NC(=O)OC(C)(C)C)c1ccccc1.Cl [Compound 3, 2′-O-(4-Diethylaminobutanoyl) DTX Hydrochloride]
conversion of prodrug to docetaxel in tissue (docetaxel/Compound 3 ratio) (MDA-MB-231 xenograft): sustained conversion of the Compound 3 to docetaxel at the tumor site | Percentage of Hydrolysis (% DTX formation) ([1]; pH 2.5, 0 h): 0.00% | Percentage of Hydrolysis (% DTX formation) ([1]; pH 2.5, 5 h): 0.00% | Percentage of Hydrolysis (% DTX formation) ([1]; pH 2.5, 24 h): 0.00% | Percentage of Hydrolysis (% DTX formation) ([1]; pH 2.5, 48 h): 0.00% | Percentage of Hydrolysis (% DTX formation) ([1]; pH 2.5, 96 h): 0% | Percentage of Hydrolysis (% DTX formation) ([1]; pH 7.5, 0 h): 0.00% | Percentage of Hydrolysis (% DTX formation) ([1]; pH 7.5, 5 h): 45.76% | Percentage of Hydrolysis (% DTX formation) ([1]; pH 7.5, 24 h): 100.00% | Percentage of Hydrolysis (% DTX formation) ([1]; pH 7.5, 48 h): 100.00% | Percentage of Hydrolysis (% DTX formation) ([1]; pH 7.5, 96 h): 100%

CC(=O)O[C@@]12CO[C@@H]1C[C@H](O)[C@@]1(C)C(=O)[C@H](O)C3=C(C)[C@@H](OC(=O)[C@H](OC(=O)CCCN(C)C)[C@@H](NC(=O)OC(C)(C)C)c4ccccc4)C[C@@](O)([C@@H](OC(=O)c4ccccc4)[C@H]21)C3(C)C.Cl [Compound 4, 2′-O-[4-(N,N-Dimethylamino)butanoyl] DTX Hydrochloride]
Percentage of Hydrolysis (% DTX formation) ([1]; pH 2.5, 0 h): 0.00% | Percentage of Hydrolysis (% DTX formation) ([1]; pH 2.5, 5 h): 0.00% | Percentage of Hydrolysis (% DTX formation) ([1]; pH 2.5, 24 h): 0.00% | Percentage of Hydrolysis (% DTX formation) ([1]; pH 2.5, 48 h): 0.00% | Percentage of Hydrolysis (% DTX formation) ([1]; pH 2.5, 96 h): 0% | Percentage of Hydrolysis (% DTX formation) ([1]; pH 7.5, 0 h): 0.00% | Percentage of Hydrolysis (% DTX formation) ([1]; pH 7.5, 5 h): 76.07% | Percentage of Hydrolysis (% DTX formation) ([1]; pH 7.5, 24 h): 100.00% | Percentage of Hydrolysis (% DTX formation) ([1]; pH 7.5, 48 h): 100.00% | Percentage of Hydrolysis (% DTX formation) ([1]; pH 7.5, 96 h): 100%

CC(=O)O[C@@]12CO[C@@H]1C[C@H](O)[C@@]1(C)C(=O)[C@H](O)C3=C(C)[C@@H](OC(=O)[C@H](O)[C@@H](NC(=O)OC(C)(C)C)c4ccccc4)C[C@@](O)([C@@H](OC(=O)c4ccccc4)[C@H]21)C3(C)C [docetaxel]
Activated partial thromboplastin time (APTT) [2]: shortened | MTD [3]: 20 mg/kg | treatment related toxicity (body weight) (SUM-159 xenograft): severe | maximum tolerated dose for weekly treatment [4]: 20 mpk
